How the values were obtained:
[1] = test system: P. trichosuri; settings: doramectin 0.6 mg/kg, in vivo, p<0.05, Ralston et al. (2001); cited from earlier work
[2] = test system: A. canimun life-cycle stages; settings: in vitro, Wang et al. (1989), cited from earlier work
[3] = test system: Strongyloides stercoralis infective larvae; assay: In vitro bioassay of infective larvae, immobilization and lethal doses (eosin, Probit); format: cell-based; settings: S. stercoralis infective larvae, 48 hr in vitro; for 48 hr ID50 ± 95% confidence intervals: immobilize 50%; for 48 hr ID90 ± 95% confidence intervals: immobilize 90%; for 48 hr LD50 ± 95% confidence intervals: kill 50%; for 48 hr LD90 ± 95% confidence intervals: kill 90%
Method: (§1) Strongyloides stercoralis infective larvae were harvested from charcoal coprocultures in nematode saline solution. The larvae were supplied by the Parasitology Laboratory, Department of Pathobiology, University of Pennsylvania. The strain of larvae was a human strain of the parasitic nematode that had been maintained for over ten years in canines by daily prednisolone treatment (2 mg/kg per os, once daily. Parastrongyloides trichosuri and Ancylostoma caninum infective larvae were also supplied by the same source as for S. stercoralis. Haemonchus contortus infective larvae were harvested from charcoal coprocultures in nematode saline solution prepared from infected sheep feces obtained from Merck Parasites Laboratory.
(§2) The 24 hr 50% and 90% immobilization doses (ID50 and ID90), and 50% and 90% lethal doses (LD50 and LD90) of eryngial (mg/ml) were investigated in vitro using infective larvae of all four parasitic nematodes. Each species was exposed to a range of eryngial dilutions by adding known volumes of a homogeneous ‘wormy’ solution (infective larvae in nematode saline solution) to known volumes of an eryngial stock suspension (10 mg/ml of nematode saline solution). Each dilution, including the control (0 mg/ml eryngial), was prepared in triplicate and also contained eosin (0.01%, w/v), which was used as an indicator of mortality, and Triton X-100 (1.0%, v/v).
(§3) Using S. stercoralis, P. trichosuri, H. contortus and A. caninum infective larvae, eryngial dilutions, excluding the controls, ranged from 0.05 to 1.15 mg/ml; 0.01 to 1.0 mg/ml; 0.5 to 2.0 mg/ml; and 0.8 to 3.0 mg/ml, respectively. Sub-sample (10 μl) counts of larvae that were mobile, immobile but not stained and stained, were done at the start of each bioassay and at 24 hr intervals for two days. Each sub-sample contained approximately 50 infective larvae.
(§4) The 48-hr immobilization doses (ID50 and ID90) and lethal doses (LD50 and LD90) of eryngial and ivermectin also were investigated, using S. stercoralis and H. contortus infective larvae. Each bioassay was conducted as described hereinabove. Using S. stercoralis and H. contortus infective larvae, ivermectin dilutions (not including the controls) ranged from 0.03 to 0.3 mg/ml and from 0.009 to 0.1 mg/ml, respectively.
(§5) Probit analysis was used to determine 24 hr and 48 hr immobilization and lethal doses for eryngial and ivermectin, respectively.

[4] = test system: Haemonchus contortus infective larvae; assay: as above; format: cell-based; settings: H. contortus infective larvae; for 48 hr ID50 ± 95% confidence intervals: immobilize 50%; for 48 hr ID50 ± 95% confidence intervals / 48 hr ID90 ± 95% confidence intervals / 48 hr LD50 ± 95% confidence intervals / 48 hr LD90 ± 95% confidence intervals: 48 hr in vitro; for 48 hr ID90 ± 95% confidence intervals: immobilize 90%; for 48 hr LD50 ± 95% confidence intervals: kill 50%; for 48 hr LD90 ± 95% confidence intervals: kill 90%
Method: as §1, §2, §3, §4, §5

[5] = test system: A. caninum; settings: in vivo; cited from earlier work
[6] = test system: H. contortus; settings: background statement; cited from earlier work

CO[C@H]1C[C@H](O[C@H]2[C@H](C)O[C@@H](O[C@@H]3/C(C)=C/C[C@@H]4C[C@@H](C[C@]5(C=C[C@H](C)[C@@H](C6CCCCC6)O5)O4)OC(=O)[C@@H]4C=C(C)[C@@H](O)[C@H]5OC/C(=C\C=C\[C@@H]3C)[C@]54O)C[C@@H]2OC)O[C@@H](C)[C@@H]1O [doramectin]
reduction of P. trichosuri infection in possums [1]: 99%

ivermectin [reference compound]
dose that killed L3 larvae ([2]; A. caninum L3 larvae): 2.5 mg/mL | dose that killed adult worms ([2]; A. caninum adult worms): 560 mg/mL | dose detrimental to eggs inside the uterine tissue of female worms ([2]; A. caninum eggs): 1000 mg/mL | 48 hr ID50 ± 95% confidence intervals [3]: 0.136 (0.114-0.157) mg/ml | 48 hr ID50 ± 95% confidence intervals ([3]; listed as ivermectin): 0.136 mg/mL | 48 hr ID90 ± 95% confidence intervals [3]: 0.297 (0.251-0.377) mg/ml | 48 hr ID90 ± 95% confidence intervals ([3]; listed as ivermectin): 0.297 mg/mL | 48 hr LD50 ± 95% confidence intervals [3]: 0.306 (0.203-0.442) mg/ml | 48 hr LD50 ± 95% confidence intervals ([3]; listed as ivermectin): 0.306 mg/mL | 48 hr LD90 ± 95% confidence intervals [3]: 1.038 (0.665-2.498) mg/ml | 48 hr LD90 ± 95% confidence intervals ([3]; listed as ivermectin): 1.038 mg/mL | 48 hr ID50 ± 95% confidence intervals [4]: 0.011 (0.001-0.022) mg/ml | 48 hr ID50 ± 95% confidence intervals ([4]; listed as ivermectin): 0.011 mg/mL | 48 hr ID90 ± 95% confidence intervals [4]: 0.059 (0.043-0.092) mg/ml | 48 hr ID90 ± 95% confidence intervals ([4]; listed as ivermectin): 0.059 mg/mL | times greater in potency than eryngial (48 hr ID90) ([4]; ivermectin vs eryngial): 12.9 times | times more effective than eryngial at immobilizing (48 hr ID50) ([4]; ivermectin vs eryngial): 28.5 times | 48 hr LD50 ± 95% confidence intervals [4]: 4.990 (4.572-5.954) mg/ml | 48 hr LD50 ± 95% confidence intervals ([4]; listed as ivermectin): 4.990 mg/mL | 48 hr LD90 ± 95% confidence intervals [4]: 6.949 (5.858-10.10) mg/ml | 48 hr LD90 ± 95% confidence intervals ([4]; listed as ivermectin): 6.949 mg/mL | effectiveness in infected dogs [5]: clearing the infection completely

c1ccc(C2CN3CCSC3=N2)cc1 (stereo not shown) [tetramisole]
efficacy rates against H. contortus infections [6]: 100%

CCCSc1ccc2nc(NC(=O)OC)[nH]c2c1 [Albendazole, albendazole]
efficacy rates against H. contortus infections [6]: 100%

— patent US9545386B2, “Methods of treating infectious diseases” (SLIPPERY ROCK UNIVERSITY FOUNDATION, INC., priority 2007, dated 2017)
